# Test results as given in publication PMC11968281, “eIF3d and eIF4G2 mediate an alternative mechanism of cap-dependent but eIF4E-independent translation initiation” (The Journal of Biological Chemistry, 2025).
# Biological target: T1, eIF3d and eIF4G2 complex (Homo sapiens, UniProt O15371)
# T1 construct: both recombinant from E. coli, 6xHis tags cut by TEV; full-length human eIF4G2; with Eukaryotic translation initiation factor 4 gamma 2
# Assay: fluorescence anisotropy competition with fluorescein-labelled m7G-capped […]'UTR RNA
# Assay type: binding
# Conditions: 20 mM Hepes-KOH pH 7.5, 100 mM KCl, 1 mM MgCl2, 25 C, cap analog competing with 10 nM capped CD101, ITGAE or ACTB RNA, m7GDP concentration not given, ligand site assigned to the eIF3d c
# T1 sequence (O15371 whole entry): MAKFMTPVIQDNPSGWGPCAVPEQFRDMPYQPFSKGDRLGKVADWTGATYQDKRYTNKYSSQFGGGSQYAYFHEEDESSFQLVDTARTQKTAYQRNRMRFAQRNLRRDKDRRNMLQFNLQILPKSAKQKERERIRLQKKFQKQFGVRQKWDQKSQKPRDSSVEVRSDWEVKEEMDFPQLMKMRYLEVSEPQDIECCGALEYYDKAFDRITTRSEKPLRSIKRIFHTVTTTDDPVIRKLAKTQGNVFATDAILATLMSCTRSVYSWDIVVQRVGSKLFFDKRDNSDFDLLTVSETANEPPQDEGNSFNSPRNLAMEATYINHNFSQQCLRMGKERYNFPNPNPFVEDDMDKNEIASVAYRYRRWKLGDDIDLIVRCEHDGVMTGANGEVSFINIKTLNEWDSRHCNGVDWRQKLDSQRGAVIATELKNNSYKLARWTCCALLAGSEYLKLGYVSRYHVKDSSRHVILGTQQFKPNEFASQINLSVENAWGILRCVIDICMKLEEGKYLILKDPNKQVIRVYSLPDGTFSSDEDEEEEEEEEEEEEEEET
# T1 sequence (P78344 whole entry partner): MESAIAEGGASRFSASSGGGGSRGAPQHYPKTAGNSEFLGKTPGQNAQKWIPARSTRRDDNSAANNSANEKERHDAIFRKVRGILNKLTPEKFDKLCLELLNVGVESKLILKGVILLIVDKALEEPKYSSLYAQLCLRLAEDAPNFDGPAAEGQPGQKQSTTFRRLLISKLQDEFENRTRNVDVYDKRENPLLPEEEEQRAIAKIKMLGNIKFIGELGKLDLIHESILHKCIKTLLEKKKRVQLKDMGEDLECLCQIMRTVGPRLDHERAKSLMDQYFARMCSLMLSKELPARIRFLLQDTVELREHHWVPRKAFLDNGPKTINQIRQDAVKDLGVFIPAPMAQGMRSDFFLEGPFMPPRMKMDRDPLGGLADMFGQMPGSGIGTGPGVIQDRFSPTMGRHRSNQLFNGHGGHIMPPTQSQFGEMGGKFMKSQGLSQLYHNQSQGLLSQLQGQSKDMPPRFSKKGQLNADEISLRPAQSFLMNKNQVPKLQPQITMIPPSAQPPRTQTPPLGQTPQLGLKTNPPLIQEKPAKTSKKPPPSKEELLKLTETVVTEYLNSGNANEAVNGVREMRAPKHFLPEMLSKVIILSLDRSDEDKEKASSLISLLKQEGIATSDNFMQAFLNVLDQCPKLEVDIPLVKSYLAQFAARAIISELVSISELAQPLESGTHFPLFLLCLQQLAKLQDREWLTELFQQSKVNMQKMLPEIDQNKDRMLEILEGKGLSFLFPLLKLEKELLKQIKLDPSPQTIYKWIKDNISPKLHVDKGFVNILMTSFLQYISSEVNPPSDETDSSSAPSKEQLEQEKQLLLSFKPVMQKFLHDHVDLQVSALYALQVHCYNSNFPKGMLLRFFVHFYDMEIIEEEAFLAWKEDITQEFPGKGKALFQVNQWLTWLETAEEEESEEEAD
structure (smiles),measurement,value
C[n+]1cn([C@@H]2O[C@H](COP(=O)(O)OP(=O)(O)O)[C@@H](O)[C@H]2O)c2nc(N)[nH]c(=O)c21 [m^7GDP],fluorescence anisotropy competition with fluorescein-labelled m7G-capped 5'UTR R,reduction in the binding affinity of the eIF3d/eIF4G2 complex to the m^7G cap was also observed
